Patent US7161008B2, “Optically active β-aminoketones, optically active 1,3-amino alcohols and processes for preparing them” (Sanofi - Aventis Deutschland GmbH, priority 2002, dated 2007)

Assay: Syn/anti-isomerization of the Mannich salt via retro-Mannich/Mannich reaction in DMSO-d6 solution at 300 K, 1H NMR monitoring
Assay type: physicochemical
Conditions: for cis-isomer [%] / trans-isomer [%]: DMSO-d6, 300 K, 1H NMR
Experimental: Electron-withdrawing substituents in the aldehyde component of formula (IV) reduced the retro-Mannich tendency. The 1H NMR monitoring of the syn/anti-isomerization of a syn-Mannich salt of formula (III) via retro-Mannich reaction at 300 K in DMSO-d6 solution can be seen in Example 28.
Syn/anti-isomerization of the Mannich base mandelate from […] in DMSO-d^6 solution at 300K. Kinetics and equilibrium location of the retro-Mannich/Mannich reactions:
8 mg of the product from Example 27 were dissolved in DMSO-d^6 as rapidly as possible in a ^1H NMR tube at room temperature. The sample was immediately introduced into the NMR instrument (400 MHz, 300.0 K), shimmed rapidly and analyzed. The first spectrum was obtained 3.5 min after the sample dissolution. […] Further spectra of the solution were each obtained at an interval of 3–4 min. […] The variation can be seen from the graphics and the table of the appendix. 69 min after dissolution of the Mannich salt, the NMR monitoring was aborted at a syn/anti ratio of 50:50. A repeat measurement 20.5 hours after dissolution of the Mannich salt indicated a syn/anti ratio of 41.5:58.5. After a total of 44.5 hours, this ratio was unchanged. The thermodynamic equilibrium of the two isomers is thus achieved in less than 20 h and the anti-isomer is preferred in solution. In contrast, the four-component coupling (Example 27) results in the crystallization of virtually pure syn-isomer, apparently owing to lower solubility. Even the spectrum obtained 3.5 min after sample dissolution indicates (in addition to the syn- and anti-isomers of the Mannich salt) the presence of the retro-Mannich products 2-pyridylmethyl phenyl ketone (formula VI; singlet at δ is 4.53 ppm) and tolylaldehyde (or corresponding imine) (formula IV or X, singlets at δ is 2.40 and 9.12 ppm) in small but significant amounts. The best fitting curve between the measurement points of the graph was obtained by 3rd order polynomial formation.

[1] = 3.5 min after sample dissolution
[2] = 6.5 min after sample dissolution
[3] = 10.5 min after sample dissolution
[4] = 13.5 min after sample dissolution
[5] = 17.5 min after sample dissolution
[6] = 20.5 min after sample dissolution
[7] = 24.5 min after sample dissolution
[8] = 27.5 min after sample dissolution
[9] = 31.5 min after sample dissolution
[10] = 34.5 min after sample dissolution
[11] = 37.5 min after sample dissolution
[12] = 41.5 min after sample dissolution
[13] = 44.5 min after sample dissolution
[14] = 48.5 min after sample dissolution
[15] = 51.5 min after sample dissolution
[16] = 55.5 min after sample dissolution
[17] = 58.5 min after sample dissolution
[18] = 61.5 min after sample dissolution
[19] = 65.5 min after sample dissolution
[20] = 68.5 min after sample dissolution
[21] = 1230 min after sample dissolution
[22] = 2670 min after sample dissolution

## Cc1ccc(C(Nc2ccccn2)C(C(=O)c2ccccc2)c2ccccn2)cc1.O=C(O)C(O)c1ccccc1 (stereo not shown) [Example 27]
[1]
  cis-isomer [%]: 95.1%
  trans-isomer [%]: 4.9%
[2]
  cis-isomer [%]: 92.5%
  trans-isomer [%]: 7.5%
[3]
  cis-isomer [%]: 89.0%
  trans-isomer [%]: 11.0%
[4]
  cis-isomer [%]: 85.0%
  trans-isomer [%]: 15.0%
[5]
  cis-isomer [%]: 81.7%
  trans-isomer [%]: 18.3%
[6]
  cis-isomer [%]: 77.3%
  trans-isomer [%]: 22.7%
[7]
  cis-isomer [%]: 76.8%
  trans-isomer [%]: 23.2%
[8]
  cis-isomer [%]: 71.8%
  trans-isomer [%]: 28.2%
[9]
  cis-isomer [%]: 68.0%
  trans-isomer [%]: 32.0%
[10]
  cis-isomer [%]: 66.2%
  trans-isomer [%]: 33.8%
[11]
  cis-isomer [%]: 63.8%
  trans-isomer [%]: 36.2%
[12]
  cis-isomer [%]: 61.7%
  trans-isomer [%]: 38.3%
[13]
  cis-isomer [%]: 60.1%
  trans-isomer [%]: 39.9%
[14]
  cis-isomer [%]: 58.7%
  trans-isomer [%]: 41.3%
[15]
  cis-isomer [%]: 56.8%
  trans-isomer [%]: 43.2%
[16]
  cis-isomer [%]: 54.5%
  trans-isomer [%]: 45.5%
[17]
  cis-isomer [%]: 53.6%
  trans-isomer [%]: 46.4%
[18]
  cis-isomer [%]: 52.9%
  trans-isomer [%]: 47.1%
[19]
  cis-isomer [%]: 52.0%
  trans-isomer [%]: 48.0%
[20]
  cis-isomer [%]: 50.5%
  trans-isomer [%]: 49.5%
[21]
  cis-isomer [%]: 41.5%
  trans-isomer [%]: 58.5%
[22]
  cis-isomer [%]: 41.6%
  trans-isomer [%]: 58.4%
DMSO-d6, 300.0 K, after a total of 44.5 hours
  syn/anti ratio of the Mannich salt in solution, compared with 20.5 hours: unchanged
DMSO-d6 solution, 300 K
  time to thermodynamic equilibrium of syn- and anti-isomers: less than 20 h
